Measurements as given in patent US20240285770A1, “PRECIPITATION SUPPRESSING AGENT” (Nippon Shinyaku Co., Ltd., priority 2021, published 2024).
Like-named read-outs stand apart in the source and are kept apart here. Values belong to the compound of their own block, whether it stands above or below them.

Key:
[1] = Plasma concentrations and estimation of urinary PMO No. 12 concentration after administration to cynomolgus monkeys; format: in vivo; details: male cynomolgus monkeys; for Plasma concentration 0 hr (a) / Plasma concentration 0.25 hr (b) / Plasma concentration 0.5 hr (c) / Plasma concentration 1 hr (d) / Plasma concentration 2 hr (e) / Plasma concentration 6 hr (f) / Plasma concentration 24 hr (g): average of 3 animals; for Estimated urinary concentration at 0.25 hr (l): amount of urine up to 0.25 hr assumed 3.91 mL; for Average plasma concentration from 0 hr to 0.25 hr (j): average of values a and b; for Amount excreted up to 0.25 hr (k): calculated by using CLtot
Procedure: (§1) For setting the test conditions such as the concentrations of sugar and antisense oligomers assumed to be in urine, D-mannitol, which is […] and corresponds to a reduced form of D-mannose, and antisense oligomers were administered to cynomolgus monkeys, and the urinary concentration shortly after administration were estimated from the changes in plasma concentrations and the total body clearance.
From the values, the area under the plasma concentration-time curve (AUC0-24 hr) up to 24 hours after administration and the total body clearance (CLtot) were calculated (the values h and i in Table 3). Further, the plasma concentrations at 0 hours and 0.25 hours after administration (the values a and b in Table 3) were averaged to obtain the average plasma concentration from 0 hours to 0.25 hours (the value j in Table 3), and the amount of antisense oligomer excreted per body weight up to 0.25 hours (the value k in Table 3) was calculated by using CLtot (the value i in Table 3). The amount of urine up to 0.25 hours after administration was assumed to be 3.91 mL, based on the fact that the daily amount of urine of cynomolgus monkeys (body weight: 5 kg) was 375 mL, and the urinary antisense oligomer concentration at 0.25 hours after administration was then estimated (the value 1 in Table 3).

[2] = Plasma concentrations and estimation of urinary D-mannitol concentration after administration to cynomolgus monkeys; format: in vivo; details: 500 mg/kg; for concentration at 4 h / concentration at 1 h / concentration at 8 h / AUC(0-t) / clearance: cynomolgus monkey, plasma; for concentration at 4 h / concentration at 1 h / concentration at 8 h / Plasma concentration 0 hr (a) / Plasma concentration 0.25 hr (b) / Plasma concentration 24 hr (f): average of 3 animals; for concentration at 1 h: read-out: Plasma concentration 1 hr (c); for concentration at 8 h: read-out: Plasma concentration 8 hr (e); for AUC(0-t): read-out: AUC0-24 hr (g); for clearance: read-out: CLtot (h) (converted); for Estimated urinary concentration at 0.25 hr (k): amount of urine up to 0.25 hr assumed 3.91 mL; for Average plasma concentration from 0 hr to 0.25 hr (i): average of values a and b; for Amount excreted up to 0.25 hr (j): calculated by using CLtot
Procedure: as §1
20% D-mannitol was diluted to 50 mg/mL with physiological saline, the diluted solution thus obtained was administered at 10 mL/kg to 3 male and 3 female cynomolgus monkeys aged 1 to 2 year-old, and the plasma concentrations were then measured at 0 hours (immediately after administration), 0.25 hours, 1 hour, 4 hours, 8 hours, and 24 hours after administration (each of the values a, b, c, d, e, and f in Table 2 was an average value of 3 animals). From the values, the area under the plasma concentration-time curve (AUC0-24 hr) up to 24 hours after administration and the total body clearance (CLtot) were calculated (the values g and h in Table 2). Further, the plasma concentrations at 0 hours and 0.25 hours after administration (the values a and b in Table 2) were averaged to obtain the average plasma concentration from 0 hours to 0.25 hours (the value i in Table 2), and the amount of D-mannitol excreted per body weight up to 0.25 hours (the value j in Table 2) was calculated by using CLtot (the value h in Table 2). The amount of urine up to 0.25 hours after administration was assumed to be 3.91 mL, based on the fact that the daily amount of urine of cynomolgus monkeys (body weight: 5 kg) was 375 mL (B Clark, D A Smith Pharmacokinetics and toxicity testing. Crit Rev Toxicol. 1984; 12 (4): 343-85.), and the urinary mannitol concentration at 0.25 hours after administration was then estimated (the value k in Table 2).
The estimated urinary concentration obtained as above was averaged, and the urinary concentration shortly after administration in a case of administering 500 mg/kg of D-mannitol was estimated to be 127.5 mg/mL. Since D-mannitol is rarely distributed in the body and rapidly excreted in urine without undergoing metabolism, it can be assumed that there is a linear relationship between the amount administered and the urinary concentration. Accordingly, by using the following formulas, the urinary concentration was converted into the amount of D-mannitol administered, and the amount administered was then converted into concentrations in the formulations at the time of administration (at the time of use) according to the body weight and the amount of dosing solution.

Compound: PMO No. 12: phosphorodiamidate morpholino antisense oligomer, sequence CCTCCGGTTCTGAAGGTGTTC, 5′-end Group(2) (all phosphorodiamidate morpholino (PMO); further chemistry not fully specified)
AUC0-24 hr (h) ([1]; 10 mg/kg): 50.25 µg·h/mL
CLtot (i) ([1]; 10 mg/kg): 3.317 mL/min/kg
Plasma concentration 0 hr (a) ([1]; 10 mg/kg): 137.6 µg/mL
Plasma concentration 0.25 hr (b) ([1]; 10 mg/kg): 30.95 µg/mL
Plasma concentration 0.5 hr (c) ([1]; 10 mg/kg): 19.06 µg/mL
Plasma concentration 1 hr (d) ([1]; 10 mg/kg): 9.79 µg/mL
Plasma concentration 2 hr (e) ([1]; 10 mg/kg): 4.328 µg/mL
Plasma concentration 6 hr (f) ([1]; 10 mg/kg): Below detection limit
Plasma concentration 24 hr (g) ([1]; 10 mg/kg): Below detection limit
Estimated urinary concentration at 0.25 hr (l) ([1]; 10 mg/kg): 5.362 mg/mL
Average plasma concentration from 0 hr to 0.25 hr (j) ([1]; 10 mg/kg): 84.28 µg/mL
Amount excreted up to 0.25 hr (k) ([1]; 10 mg/kg): 4193 µg/kg
AUC0-24 hr (h) ([1]; 60 mg/kg): 269.3 µg·h/mL
CLtot (i) ([1]; 60 mg/kg): 3.713 mL/min/kg
Plasma concentration 0 hr (a) ([1]; 60 mg/kg): 805.9 µg/mL
Plasma concentration 0.25 hr (b) ([1]; 60 mg/kg): 154.7 µg/mL
Plasma concentration 0.5 hr (c) ([1]; 60 mg/kg): 100.9 µg/mL
Plasma concentration 1 hr (d) ([1]; 60 mg/kg): 45.93 µg/mL
Plasma concentration 2 hr (e) ([1]; 60 mg/kg): 18.46 µg/mL
Plasma concentration 6 hr (f) ([1]; 60 mg/kg): 1.045 µg/mL
Plasma concentration 24 hr (g) ([1]; 60 mg/kg): Below detection limit
Estimated urinary concentration at 0.25 hr (l) ([1]; 60 mg/kg): 34.21 mg/mL
Average plasma concentration from 0 hr to 0.25 hr (j) ([1]; 60 mg/kg): 480.3 µg/mL
Amount excreted up to 0.25 hr (k) ([1]; 60 mg/kg): 26753 µg/kg

concentration at 4 h ([2]; female cynomolgus monkeys): 90.3 µg/mL
concentration at 1 h ([2]; female cynomolgus monkeys): 720 µg/mL
concentration at 8 h ([2]; female cynomolgus monkeys): 4.87 µg/mL
AUC(0-t) ([2]; female cynomolgus monkeys): 2830 µg·h/mL
clearance ([2]; female cynomolgus monkeys): 2.95 mL/min/kg
concentration at 4 h ([2]; male cynomolgus monkeys): 89.2 µg/mL
concentration at 1 h ([2]; male cynomolgus monkeys): 651 µg/mL
concentration at 8 h ([2]; male cynomolgus monkeys): 4.67 µg/mL
AUC(0-t) ([2]; male cynomolgus monkeys): 2680 µg·h/mL
clearance ([2]; male cynomolgus monkeys): 3.12 mL/min/kg
urinary concentration shortly after administration (estimated, averaged) ([2]; cynomolgus monkeys, average of male and female estimates): 127.5 mg/mL
Plasma concentration 0 hr (a) ([2]; female cynomolgus monkeys): 2950 µg/mL
Plasma concentration 0.25 hr (b) ([2]; female cynomolgus monkeys): 1490 µg/mL
Plasma concentration 24 hr (f) ([2]; female cynomolgus monkeys): Below detection limit
Estimated urinary concentration at 0.25 hr (k) ([2]; female cynomolgus monkeys): 126 mg/mL
Average plasma concentration from 0 hr to 0.25 hr (i) ([2]; female cynomolgus monkeys): 2220 µg/mL
Amount excreted up to 0.25 hr (j) ([2]; female cynomolgus monkeys): 98235 µg/kg
Plasma concentration 0 hr (a) ([2]; male cynomolgus monkeys): 2810 µg/mL
Plasma concentration 0.25 hr (b) ([2]; male cynomolgus monkeys): 1510 µg/mL
Plasma concentration 24 hr (f) ([2]; male cynomolgus monkeys): Below detection limit
Estimated urinary concentration at 0.25 hr (k) ([2]; male cynomolgus monkeys): 129 mg/mL
Average plasma concentration from 0 hr to 0.25 hr (i) ([2]; male cynomolgus monkeys): 2160 µg/mL
Amount excreted up to 0.25 hr (j) ([2]; male cynomolgus monkeys): 100980 µg/kg
Compound: OC[C@@H](O)[C@@H](O)[C@H](O)[C@H](O)CO [D-Mannitol, D-mannitol]
